Calls of active or inactive are those of the source. How the calls were made is not given here.

The target in one experiment is Prostaglandin E2 receptor EP2 subtype (Homo sapiens) (UniProt P43116). The experiment is described as follows: compounds shifting PGE2 potency at EP2 – cell-based, human EP2, PGE2 EC50 shift, dose response (AID 1421). The conditions noted are these: EP2-expressing cells, PGE2 EC50 shift by compound.
Chain of Prostaglandin E2 receptor EP2 subtype (Homo sapiens) (P43116 whole entry, looked up): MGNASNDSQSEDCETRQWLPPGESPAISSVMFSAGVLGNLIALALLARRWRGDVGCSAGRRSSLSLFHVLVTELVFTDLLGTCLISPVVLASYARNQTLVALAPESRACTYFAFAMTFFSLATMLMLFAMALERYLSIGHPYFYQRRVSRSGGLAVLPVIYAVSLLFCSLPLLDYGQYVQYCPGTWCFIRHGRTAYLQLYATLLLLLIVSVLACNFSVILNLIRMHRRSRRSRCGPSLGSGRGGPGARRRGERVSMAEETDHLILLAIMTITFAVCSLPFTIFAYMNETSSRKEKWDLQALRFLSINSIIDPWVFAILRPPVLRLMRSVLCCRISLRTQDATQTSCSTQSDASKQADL
With `COc1cccc2cc(/C(=N/O)c3ccccc3)oc12`, the outcome was active.
Regarding `COc1ccccc1CNc1cc(C)ccc1C`, the result was active.
On to `CC(C)Oc1nc(-c2ccccc2O)nc2ccccc12`, for which the outcome was active.
The same measure, in the same setting: to `COc1cc(-c2nc(-c3cccc(C(F)(F)F)c3)no2)cc(OC)c1OC` belongs “active”.
Same read-out and setting: to `CCOC(=O)c1cc(C)sc1NC(=O)c1ccc(Cl)s1` belongs “active”; to `O=C(O)c1ccc(-c2nc(-c3cccc(C(F)(F)F)c3)cs2)cc1`, “active”; to `N#CC1=C(N)S[C@H](C(=O)C23CC4CC(CC(C4)C2)C3)[C@H]1c1ccncc1`, “active”.
`O=C(Nc1ccccc1-c1ccccc1)c1ccc(Br)o1`: the outcome was active.

Staying with this experiment, now noted: EP2-expressing cells, PGE2 EC50 shift by compound; measured here: PGE2 EC50 at 6.7 uM compound.
Regarding `COc1cccc2cc(/C(=N/O)c3ccccc3)oc12`, the PGE2 EC50 with compound came to 1.51 nM.
Same read-out and setting: as for `COc1ccc(S(=O)(=O)N(Cc2ccccc2)Cc2nc(-c3ccccc3)no2)cc1`, the figure is 1.16 nM; as for `O=C(O)c1ccc(C(=O)O)c(C(=O)Nc2ccc3c(c2)Cc2ccccc2-3)c1`, 2.77 nM.
Same read-out and setting: to `COc1ccc(Cl)cc1-n1c(C)ccc1C` belongs 1.06 nM; to `N#Cc1sc2nc(N3CCCCC3)c3c(c2c1N)CCCC3`, 1.33 nM; to `Cc1cc(SCC(=O)c2ccccc2)nc2ccccc12`, 1.09 nM.
Still for that read-out and setting: as for `O=C(c1ccc(Cl)cc1)c1oc2ccccc2c1CS(=O)(=O)c1ccccc1`, the figure is 2.88 nM; as for `CCOC(=O)C(Cc1ccccc1)(NC(C)=O)C(=O)OCC`, 1.39 nM; as for `COc1cc2nc(N3CCN(C(=O)C4CCCO4)CC3)nc(N)c2cc1OC` (stereo not drawn), 0.85 nM.
Turning to `COCCCN(C(=O)c1ccco1)c1nc(-c2cc(OC)ccc2OC)cs1`, the PGE2 EC50 with compound is 0.9 nM.
As to `c1ccc(CCc2cccnc2)nc1`, the PGE2 EC50 with compound was 1.62 nM.
Same read-out and setting: to `C=CCn1c(-c2oc3nc(-c4ccccc4)cc(-c4ccccc4)c3c2N)n[nH]c1=S` belongs 1.45 nM; to `Cc1cc(SCC(=O)NCCC2=CCCCC2)nc2ccccc12`, 2.66 nM.
Still for that read-out and setting: as for `Cc1ccc(S(=O)(=O)NCC(=O)OCN2C(=O)c3ccccc3C2=O)cc1`, the figure is 1.01 nM.
For the compound `C=CCn1c(=S)[nH]c2sccc2c1=O`, the PGE2 EC50 with compound came out at 1.53 nM.
`COc1ccccc1CNc1cc(C)ccc1C`: the PGE2 EC50 with compound is 0.77 nM.
The same measure, in the same setting: to `CC(C)(C)c1nc2ccccc2c(=O)n1N1C(=O)c2ccccc2C1=O` belongs 0.82 nM; to `CC(=O)c1sc2nc(-c3ccc(C)cc3)c3c(c2c1N)CCCC3`, 2.47 nM; to `Cc1nc2ccccc2c(-c2ccccc2)c1C(=O)c1ccccc1`, 2.55 nM.
The same measure, in the same setting: as for `CC1(c2ccccc2)CC(C)(C)N(C(=O)C2CCCO2)c2ccccc21` (stereo not drawn), the figure is 0.9 nM; as for `CCC(Sc1nc(-c2ccccc2)c(C#N)c(=O)[nH]1)C(=O)Nc1cc(C)on1` (stereo not drawn), 1.38 nM; as for `Cc1ccccc1NC1=C(C(=O)c2ccccc2)N(C)S(=O)(=O)c2ccccc21`, 1.01 nM.
Regarding `CC(C)CNC(=O)C(=O)NNC(=O)c1ccco1`, the PGE2 EC50 with compound worked out at 2.49 nM.
With `CC(=O)NC(c1ccccc1)c1cccnc1` (stereo not drawn), the PGE2 EC50 with compound was 1.03 nM.
On to `CC(=O)Oc1c2c(c3c(c1CC=C(C)C)O[C@]14C(=C[C@@H]5CC1C(C)(C)OC4(C/C=C(\C)C(=O)O)C5=O)C3=O)OC(C)(CCC=C(C)C)C=C2` (stereo partly drawn), for which the PGE2 EC50 with compound turned out to be 0.89 nM.
On the same count and under the same terms, as for `CC(C)Oc1nc(-c2ccccc2O)nc2ccccc12`, the figure is 1.01 nM; as for `COC(=O)c1ccc(-n2nc(C(F)(F)F)c3c2-c2ccoc2CC3)cc1`, 0.79 nM; as for `Nc1ccc(SC(F)(F)F)cc1C(=O)c1ccccc1`, 2.39 nM.
For the compound `Cc1ccc(C(=O)O)cc1NC(=S)NC(=O)c1ccc(-c2ccccc2)cc1`, the PGE2 EC50 with compound stood at 0.83 nM.
As for `COc1ccc(OC)c(-c2cnc(OC(C)(C)C)nc2OC(C)(C)C)c1`, the PGE2 EC50 with compound was 1.35 nM.
Same read-out and setting: to `CCN(CC)c1nc(C#N)nc(N(CC)CC)n1` belongs 0.95 nM; to `CCCCC(=O)C1CCN(Cc2ccccc2)CC1`, 0.89 nM.
Consider `COc1ccccc1/C=C(/C(=O)OCC(=O)Nc1ccccc1C(C)C)c1ccccc1`, for which the PGE2 EC50 with compound turned out to be 1.1 nM.
As to `COc1ccc(-n2c(-c3ccccc3)nnc2-c2ccc(Cl)cc2)cc1`, the PGE2 EC50 with compound was 1.23 nM.
Still for that read-out and setting: as for `COc1cc(-c2nc(-c3cccc(C(F)(F)F)c3)no2)cc(OC)c1OC`, the figure is 0.89 nM; as for `Cc1ccnc(SCC(=O)n2c3c(c4ccccc42)CC(C)CC3)n1` (stereo not drawn), 0.86 nM; as for `CC(C)(C)n1nnnc1C(c1ccncc1)N(Cc1ccccc1)Cc1ccco1` (stereo not drawn), 1.03 nM.
On to `CNc1oc(-c2ccc(Cl)cc2)nc1P(=O)(c1ccccc1)c1ccccc1`, for which the PGE2 EC50 with compound came out at 0.76 nM.
The same measure, in the same setting: to `CC(C)NC(=S)N/N=C1\CCCCC1C1CCCCC1` (stereo not drawn) belongs 1.34 nM.
In the case of `Clc1ccc(Cn2c(/C=C/c3ccco3)nc3ccccc32)cc1`, the PGE2 EC50 with compound turned out to be 1.38 nM.
On the same count and under the same terms, as for `O=C(c1cccs1)c1cn(Cc2ccccc2Cl)c2ccccc12`, the figure is 2.63 nM; as for `CC(C)CCn1c(N2CCN(c3cccc(Cl)c3)CC2)nc2c1c(=O)[nH]c(=O)n2C`, 0.93 nM; as for `Cc1nn(Cc2c(Cl)cccc2Cl)c(C)c1C(=O)NCc1ccc(C)n1C`, 1.18 nM.
In the case of `CCOC(=O)c1cc(C)sc1NC(=O)c1ccc(Cl)s1`, the PGE2 EC50 with compound was determined as 0.73 nM.
Same read-out and setting: to `O=C(O)c1ccc(-c2nc(-c3cccc(C(F)(F)F)c3)cs2)cc1` belongs 1.19 nM; to `O=C(CSc1nc2cc(Cl)ccc2s1)N1CCCc2ccccc21`, 1.09 nM.
Still for that read-out and setting: to `N#CC1=C(N)S[C@H](C(=O)C23CC4CC(CC(C4)C2)C3)[C@H]1c1ccncc1` belongs 0.96 nM; to `CSc1nc(NCc2ccco2)c2ccccc2n1`, 1.3 nM.
With `CCCOc1ccccc1Cn1c(=O)oc2ccc(C)cc21`, the PGE2 EC50 with compound is 2.64 nM.
Consider `COc1ccc(-n2c(CCc3ccccc3)nnc2SCC(=O)c2ccccc2)cc1`, for which the PGE2 EC50 with compound was found to be 1.57 nM.
Take `O=c1[nH]c2ccc(Br)cc2c(-c2ccccc2)c1N1CCOCC1`: the PGE2 EC50 with compound was 1.07 nM.
The same measure, in the same setting: to `O=C(O)c1ccc(N2C(=O)/C(=C/C=C/c3ccccc3)SC2=S)cc1` belongs 2.89 nM; to `O=C(Nc1ccccc1N1CCCC1)c1cc2ccccc2o1`, 1.46 nM; to `Cc1cc(NC(=O)Cn2nnc3sc4c(c3c2=O)CCC(C(C)(C)C)C4)no1` (stereo not drawn), 0.98 nM.
With `Cc1ccc(-c2nc(P(=O)(c3ccccc3)c3ccccc3)c(N3CCOCC3)o2)cc1`, the PGE2 EC50 with compound is 1.18 nM.
On the same count and under the same terms, as for `CCOc1ccc(Cl)cc1S(=O)(=O)n1cnc2cc(C)c(C)cc21`, the figure is 1.16 nM; as for `CN(c1ccccc1)C1CCCCC1NS(=O)(=O)c1ccc(Cl)cc1` (stereo not drawn), 2.43 nM; as for `CCC1(C)Cc2ccccc2-c2nc3n(c(=O)c21)CCS3` (stereo not drawn), 1.37 nM.
For the compound `O=C(Nc1ccccc1-c1ccccc1)c1ccc(Br)o1`, the PGE2 EC50 with compound worked out at 1.27 nM.
The same measure, in the same setting: to `CC1CCc2cc(F)cc3c(O)c(C(=O)NCc4ccco4)c(=O)n1c23` (stereo not drawn) belongs 0.56 nM; to `O=C(Nc1ccccc1N1CCCCC1)c1ccc(Cl)c([N+](=O)[O-])c1`, 1.23 nM.
Regarding `C[C@@H]1CC[C@H]2C(C)(C)C3CC12CC[C@@]3(C)O` (stereo partly drawn), the PGE2 EC50 with compound was found to be 0.32 nM.
With `COC(=O)c1sccc1NC(=O)c1cc2c(s1)CCCC2`, the PGE2 EC50 with compound was determined as 1.01 nM.
The same measure, in the same setting: as for `Cc1cccc(/C=C/c2nc3ccccc3c(=O)n2Cc2ccccc2)c1`, the figure is 2.67 nM; as for `COc1ccccc1-c1nnc(SCC(=O)c2ccc(C3CCCCC3)cc2)n1Cc1ccco1`, 0.71 nM; as for `CCC1(CC)Cc2ccccc2-c2nc(NCCO)[nH]c(=O)c21`, 1.25 nM.
As to `O=C(CNC1CCCCC1)N1CCC2(CC1)OCCO2`, the PGE2 EC50 with compound came out at 1.35 nM.
On the same count and under the same terms, to `Cc1cc(SCC(=O)Nc2cccnc2Cl)nc2ccccc12` belongs 0.87 nM; to `C=CCSc1nc2ccccc2c(=O)n1Cc1ccccc1`, 0.72 nM.
The same measure, in the same setting: as for `Cc1ccc(OCc2n[nH]c(=S)n2Cc2ccccc2)cc1`, the figure is 1.17 nM; as for `COc1cccc(C(=O)Nc2cccc(OCC(=O)O)c2)c1`, 0.93 nM.
For `CCOC(=O)c1c(-c2ccc(C)o2)csc1NC(=O)CN1CCCCC1`, the PGE2 EC50 with compound came out at 0.73 nM.
Same read-out and setting: as for `CCOC(=O)c1c(NC(=O)c2ccn(CC)n2)sc2c1CCCC2`, the figure is 1.14 nM; as for `C=CCN1C(=O)N(/C=C/C)c2cccc3cccc1c23`, 2.79 nM.
On the same count and under the same terms, to `CCOC(=O)C1=C(CC)Nc2ccccc2N=C1NC(=O)c1oc2ccccc2c1C` belongs 1.19 nM; to `O=C(O)c1nc2nc(Cl)c(Cl)nc2[nH]1`, 1.28 nM.
On the same count and under the same terms, to `O=C(CSc1nnc(-c2cc3ccccc3cc2O)n1Cc1ccco1)c1ccc(F)cc1` belongs 1.35 nM.
Turning to `COc1cc(C)c(C(=O)Oc2cc(C)c(C(=O)O)c(O)c2C)c(OC)c1C`, the PGE2 EC50 with compound is 0.98 nM.
As to `Cc1ccc(N=Nc2c(N)[nH]n3c(=O)c4c(nc23)CCCC4)cc1`, the PGE2 EC50 with compound was 0.81 nM.
Regarding `O=C(O)CCN1C(=O)/C(=C/c2cn(-c3ccccc3)nc2-c2cccs2)SC1=S`, the PGE2 EC50 with compound turned out to be 0.33 nM.
The same measure, in the same setting: as for `COc1ccc(-n2c(-c3cccc(OC)c3)nc(=S)c3c2CCCC3)cc1`, the figure is 2.89 nM; as for `Cc1ccc2c(c1)-c1nc3ccccc3cc1C2=NC1CCCCC1`, 1.41 nM.
As to `N#CC1=C(S)N(c2ccccc2)C2(CCCCC2)NC1=O`, the PGE2 EC50 with compound turned out to be 1.12 nM.
With `COc1ccc2c(c1)C(C)=CC(C)(C)N2S(=O)(=O)c1ccc(Br)cc1`, the PGE2 EC50 with compound amounted to 0.98 nM.
With `CCCCNc1nc2c(S(=O)(=O)c3ccccc3)nnn2c2ccccc12`, the PGE2 EC50 with compound came out at 1.17 nM.
On the same count and under the same terms, to `COC[C@H]1OC(=O)c2coc3c2[C@@]1(C)C1=C(C3=O)C2CCC(=O)[C@@]2(C)C[C@H]1OC(C)=O` (stereo partly drawn) belongs 0.84 nM.
On the same count and under the same terms, as for `COc1ccc(-c2noc(-c3ccccc3C(=O)Nc3cccnc3)n2)cc1`, the figure is 1.02 nM; as for `CC(=O)c1ccc(S(=O)(=O)NCCCC(=O)NCCc2ccccn2)cc1`, 1.15 nM; as for `CCn1c(=NC(=O)c2ccc(S(=O)(=O)N3CCOCC3)cc2)sc2cccc(OC)c21`, 0.91 nM.
Still for that read-out and setting: to `COC(=O)c1ccc(-c2ccco2)n1Cc1ccccc1Cl` belongs 1.03 nM.

Values taken from PubChem BioAssay AID1421 (Emory University Molecular Libraries Screening Center, 2008).
